Experimental data taken from article PMC8355244, “A fragment-based approach identifies an allosteric pocket that impacts malate dehydrogenase activity” (Communications Biology, 2021).

Tests used:
PfMDH = target: T1, PfMDH (Plasmodium falciparum, UniProt Q6VVP7); assay: Thermal shift assay (TSA); format: binding
T1 construct: The full-length WT PfMDH gene was cloned into pETM-13; made in house; host or cells: E. coli Rosetta 2 (DE3) pLysS
Method: The TSA experiment was conducted in a BioRad CSX 96 (Biorad). Each reaction consisted of 1 mM of compound (100 mM stock in 100% (v/v) DMSO) and 10 μM PfMDH in 100 mM Na–phosphate buffer pH 7.4, 400 mM NaCl, and 10× Sypro Orange (Invitrogen) for a total volume of 100 μl. Control experiments were performed with 1% (v/v) DMSO. Inflection points were determined using BioRad CFX96™ control software. Generally, a temperature increase of over 1 °C is interpreted as a result of the stabilization of the protein-ligand interaction. On the contrary, a negative shift is considered a destabilization caused by the fragment.

[1] = Precipitation / turbidity of compound in assay buffer (600 nm); format: physicochemical; conditions: activity screening buffer, 500 µM
Method: 1.3 µL of derivatives of 4-phenylthiazol-2-amine in 100% DMSO were mixed with 237.7 µL of a mastermix of WT PfMDH previously incubated with NAD+. The final compound concentration used in this screening was 500 µM in the presence of 0.5% (v/v) DMSO. The microplate was sealed with silver foil for 1-h incubation at 25–35 °C. Finally, reactions in both the samples and control wells were started upon the addition of 13.0 µL of 5 mM malate). At the end of the experiments, the reaction of the plate was spectrophotometrically assayed at 600 nm in order to identify turbidity due to the low solubility of the compound. All measurements were performed in duplicate.

T1 sequence (Q6VVP7 entry or part of it): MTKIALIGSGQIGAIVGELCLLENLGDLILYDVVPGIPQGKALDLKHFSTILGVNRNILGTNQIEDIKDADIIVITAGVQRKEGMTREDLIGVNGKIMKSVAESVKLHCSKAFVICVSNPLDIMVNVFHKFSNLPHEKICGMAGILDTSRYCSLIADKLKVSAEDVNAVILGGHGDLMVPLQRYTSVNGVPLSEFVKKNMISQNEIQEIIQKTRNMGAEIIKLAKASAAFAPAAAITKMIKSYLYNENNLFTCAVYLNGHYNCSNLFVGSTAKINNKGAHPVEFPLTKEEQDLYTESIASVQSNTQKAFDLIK

4-(3-(trifluoromethyl)phenyl)thiazol-2-amine [compound 8a]
ΔTm (PfMDH; 1 mM compound vs DMSO control): −10 °C
Tm (PfMDH; 1 mM compound, 10 μM PfMDH, DMSO control Tm 58): 48.0 ± 1.0 °C
precipitation of compound in the buffer [1]: precipitation of compound was observed
